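Tested at 5 concentrations; 48 h exposure; 96-well plates; endpoints linearly interpolated, else capped at highest concentration. At the TGI there is no net growth.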

Common to all, as to assay: inhibition of tumour cell growth, NCI panel, 48 h
Assay [1] relates to UACC-257 melanoma.
Assay [2] relates to OVCAR-3 ovarian.
The subject of assay [3] is SK-MEL-5 melanoma.
Assay [4] concerns HCT-116 colon.
Assay [5] concerns NCI-H460 lung.
The subject of assay [6] is HOP-62 NSCLC.
Assay [7] deals with TK-10 renal.
For assay [8], the system named is DU-145 prostate.
The test system of assay [9] is SW-620 colon.
For assay [10], the system named is EKVX NSCLC.
Assay [11] has as its system HS 578T breast.
Assay [12] deals with SF-539 CNS.
The test system of assay [13] is SN12C renal.
Assay [14] concerns OVCAR-8 ovarian.
Assay [15] deals with T-47D breast.

On to `O=c1[nH]nc(-c2ccccc2)n1/N=C/c1ccc([N+](=O)[O-])cc1`, for which the TGI is over 100 µM in assay [1]; over 100 µM in assay [2]; over 100 µM in assay [3]; over 100 µM in [4]; over 100 µM in assay [5]; 25.8 µM in assay [6]. Also, the TGI was 55 µM in assay [7]; over 100 µM in assay [8]; over 100 µM in assay [9]; over 100 µM in assay [10]; 98.2 µM in [11]; over 100 µM in assay [12]. The TGI is over 100 µM in [13], 37.1 µM in assay [14] and over 60.2 µM in assay [15].

The record behind these values is PubChem BioAssay (NCI).
